# Reference: patent US6441134B1, “Isolated Candida albicans oligopeptide transporter gene” (The University of Tennessee Research Corporation, dated 2002)
# Starred links: 1 amine or outer side, 2 acyl side, 3 side chain; linkers in the order of their positions; H or OH if unused. Non-standard residues stand in square brackets, D forms with d. Residues, ends and D or L forms follow the SMILES beside them. No end group written: not given here. Eth = ethionine, CCSCC[C@H](N[*:1])C(=O)[*:2]; Ethionine = CCSCC[C@H](N[*:1])C(=O)[*:2]; hCys = N[C@@H](CCS)C(=O)O
# How the values were obtained:
# [1] = system: S. cerevisiae PB1X-9B(pRS202); experiment: Disk sensitivity assay to ethionine-containing peptides, PB1X-9B(pRS202); format: cell-based, Saccharomyces cerevisiae; details: for zone of growth inhibition / sensitivity: 0.1% proline as nitrogen source, 0.38 μmoles per 6 mm disk; for zone of growth inhibition: medium containing ammonium sulfate
# Experimental: (§1) S. cerevisiae PB1X-9B is sensitive to the toxic amino acid ethionine Eth) but is resistant to ethionine containing di-, tri-, tetra-, and pentapeptides. Disk sensitivity assays was utilized to determine if cells transformed with pOPT1 were sensitive to toxic peptides and whether this sensitivity was dependent upon nitrogen source.
# (§2) Sensitivity to ethionine, a toxic methionine analog, and ethionine-containing peptides was determined by the method described by Island et al. (1987). Cells were grown overnight to exponential phase of growth in SC, washed, and resuspended at 5×10^6 cells /ml in sterile water. One ml of this cell suspension was added to 3 ml molten Noble agar (0.8% final concentration) and overlayed on 20 ml of the same medium used to prepare the inoculum. A disk (6 mm diameter, Difco) was placed on the plate and 0.38 μmoles of the compounds to be tested were applied to the disks. Zones of inhibition were measured after 24-48 hr incubation at 30 iC. Each test comprised at least three independent assays and the results represented in the Tables are means of the values obtained. Maximum variation between the zones of inhibition measured for each test were ^23 mm. A value of 7 mm for the diameter of zone of inhibition represents a minimal growth inhibition value as the disk diameter was 6 mm. Photodocumentation of sensitivity assays was done with a Umax Scanner and processed through Adobe Photoshop.
# [2] = system: S. cerevisiae PB1X-9B(pOPT1); format: cell-based, Saccharomyces cerevisiae; details: 0.38 μmoles per 6 mm disk; for zone of growth inhibition / sensitivity: 0.1% proline as nitrogen source; for zone of growth inhibition: ammonium sulfate as nitrogen source, 24-48 hr
# Experimental: as §1, §2
# [3] = system: S. cerevisiae PB1X-9B(pOPT1); experiment: Growth assay, peptides as sole source of leucine, PB1X-9B(pOPT1); format: cell-based, Saccharomyces cerevisiae; details: 100 μM peptide; for utilization of peptide as a sole source of leucine (growth): medium with 0.1% proline as nitrogen source
# Experimental: (§3) To determine the size constraints of peptide utilization mediated by pOPT1, the ability of S. cerevisiae PB1X-9B (a mutant in the di-/tripeptide transporter) harboring either pRS202 (the parent vector) or pOPT1 (pRS202 containing the 3.8 kb insert with the OPT1 gene) to grow on KL, KLG, KLLG SEQ ID NO:6, and KLLLG SEQ ID NO:8 as a sole source of leucine was tested. Previously it has been shown that di-/tripeptide transport activity in C. albicans and S. cerevisiae is regulated by nitrogen; rich nitrogen sources such as ammnonium sulfate repress, while poor nitrogen sources such as proline derepress transport. Therefore simultaneous effect of nitrogen source on oligopeptide transport activity was determined by supplying either ammnonium sulfate or proline as the nitrogen source.
# (§4) Peptide medium consisted of minimal medium supplemented with auxotrophic requirements minus the amino acid Seucine plus 100 μM of one of the following peptidest Lysyl-Leucine (KL), Lysyl-Leucyl-Glycine (KLG), Lysyl-Leucyl-Leucyl-Glycine (KLLG) SEQ ID NO:6, Lysyl-Leucyl-Glycyl-Leucine (KLGL) SEQ ID NO:7, or Lysyl-Leucyl-Leucyl-Leucyl-Glycine (KLLLG) SEQ ID NO:8. Abbreviations for toxic peptides and amino acids used herein are as follows: Ethionine (Eth), Alanyl-Ethionine (AEth), Leucyl-Ethionine (LEth), Lysysl-Leucyl-Ethionine (KLEth), Lysyl-Leucyl-Leucyl-Ethionine (KLLEth) SEQ ID NO:12, Lysysl-Leucyl-Alanyl-Ethionine (KLAEth) SEQ ID NO:14, and Lysyl-Leucyl-Leucyl-Leucyl-Ethionine (KLLLEth) SEQ ID NO:13. All amino acids were in the L configuration.
# (§5) Growth assays to determine the phenotype of the cells were done as described by Island et al. (1991). Briefly, 3 μl of culture from a suspension of 5×10^6 cells/ml were spotted to the surface of the medium and plates were incubated at 30 iC for 4-7 days.
# [4] = system: S. cerevisiae PB1X-9B(pRS202); experiment: Growth assay, peptides as sole source of leucine, PB1X-9B(pRS202); format: cell-based, Saccharomyces cerevisiae; details: medium with 0.1% proline as nitrogen source; 100 μM peptide
# Experimental: as §3, §4, §5
# [5] = system: oligopeptide transporter (OPT1) expressed in S. cerevisiae PB1X-9B; experiment: Peptide transport competition experiment, KLG-[3H]L uptake by PB1X-9B(pOPT1); format: cell-based, Candida albicans; details: for uptake rate of KLG-[3H]L in the presence of the competitor: SC-Ura with ammonium sulfate; for competition with the uptake of KLG-[3H]L: 10-fold molar excess of competitor, FIG. 7
# Experimental: To more rigorously determine the size constraints of the oligopeptide transporter, the accumulation of KLG-[^3H]L SEQ ID NO:7 was measured in the presence of 10-fold molar excess of the competitors L, KL, KLG, KLLG SEQ ID NO:6, and KLLLG SEQ ID NO:8. […] Uptake rates were calculated from a bestfit of the slope for each set of data. The uptake rate of KLG-[^3H]L SEQ ID NO:7 in the presence of no competitor, L, or KL was […] of dry weight, respectively. When KLG was used as a competitor the uptake rate was 0.12 nmoles/min/mg of dry weight which was approximately 50% of the no-competitor rate. The uptake rate approximated zero when KLLG SEQ ID NO:6 and KLLLG SEQ ID NO:8 were used as competitors.
# Uptake of KLG-[^3H]L SEQ ID NO:7 was determined using a protocol for uptake of dipeptides as described by Basrai et al. (1995) with a few modifications. S. cerevisiae cultures were grown overnight to exponential phase in SC-Ura medium. Cells were harvested by centrifugation, and resuspended in 2% glucose at a cell density of 2×10^8 cells/ml. Two hundred and fifty microliters of cell suspension were added to an equal volume of an uptake assay reaction mixture and incubated at 30iC. The final concentrations of the components in the uptake assay solution were: glucose (2%, w/v), 10 mM sodium citrate/potassium phosphate buffer (pH 5.0), and KLG-[^3H]L SEQ ID NO:7 (150 μM; 8.5 mCi/mmol). Competition experiments were done in the presence of either 1.5 mM L, KL, KLG, KLLG SEQ ID NO:6, or KLLLG SEQ ID NO:8. At various time points, 90 μl portions were removed and filtered through a membrane. The yeast cells retained on the filter were washed twice with ice-cold distilled water, once with room temperature distilled water, and the residual radioactivity was measured by liquid scintillation. There was no peptide adsorption to the cell surface or sticking to filters since at 0i C the counts were at background level. The uptake results, calculated on the basis of 50% counting efficiency (determined using L-[^3H]lysine as a standard, and the specific activity of the peptide), were expressed as nmol of peptide uptake per minute per mg cell dry weight.
# [6] = biological target: T1, Candida albicans oligopeptide transporter Opt1p (protein product of OPT1) (Candida albicans); experiment: cell-based or functional assay
# T1 chain: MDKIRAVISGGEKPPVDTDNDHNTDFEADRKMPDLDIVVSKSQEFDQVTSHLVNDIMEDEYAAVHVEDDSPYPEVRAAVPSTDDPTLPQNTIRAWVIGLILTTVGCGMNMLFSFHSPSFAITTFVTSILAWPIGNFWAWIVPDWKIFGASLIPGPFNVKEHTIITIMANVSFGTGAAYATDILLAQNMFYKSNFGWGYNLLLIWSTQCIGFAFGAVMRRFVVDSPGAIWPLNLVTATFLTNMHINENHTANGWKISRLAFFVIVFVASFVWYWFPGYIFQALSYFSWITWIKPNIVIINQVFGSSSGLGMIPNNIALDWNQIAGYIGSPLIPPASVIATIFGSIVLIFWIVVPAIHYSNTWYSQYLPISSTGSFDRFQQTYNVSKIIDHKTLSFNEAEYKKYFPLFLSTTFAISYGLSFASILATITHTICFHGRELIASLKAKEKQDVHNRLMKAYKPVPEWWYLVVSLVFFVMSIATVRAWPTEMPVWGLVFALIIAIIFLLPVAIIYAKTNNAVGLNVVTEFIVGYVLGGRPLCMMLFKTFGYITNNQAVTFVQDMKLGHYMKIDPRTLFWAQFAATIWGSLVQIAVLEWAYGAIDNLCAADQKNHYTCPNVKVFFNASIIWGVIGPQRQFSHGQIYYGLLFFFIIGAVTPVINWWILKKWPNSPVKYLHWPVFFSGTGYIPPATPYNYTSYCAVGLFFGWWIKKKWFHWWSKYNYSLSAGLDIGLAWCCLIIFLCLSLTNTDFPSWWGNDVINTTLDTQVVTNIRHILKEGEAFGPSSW
# [7] = 10-fold molar excess (1.5 mM) of competitor
Molecule,zone of growth inhibition / sensitivity [1],zone of growth inhibition / sensitivity [2],utilization of peptide as a sole source of leucine (growth) [3],utilization of peptide as a sole source of leucine (growth) [4],"uptake rate of KLG-[3H]L in the presence of the competitor [5, 7]",competition with the uptake of KLG-[3H]L [5],other results
"CCSCC[C@H](NC(=O)[C@H](C)N)C(=O)O [AEth, Alanyl-Ethionine] (H-Ala-[hCys](Et)-OH)",Neither strain exhibited sensitivity,Neither strain exhibited sensitivity,–,–,–,–,zone of growth inhibition [2]: no zone of growth inhibition
"CC(C)C[C@H](NC(=O)[C@@H](N)CCCCN)C(=O)O [KL, Lysyl-Leucine] (H-Lys-Leu-OH)",–,–,No growth,No growth,0.26 nm/min/mg of dry weight,do not compete,–
"CC(C)C[C@H](NC(=O)[C@@H](N)CCCCN)C(=O)NCC(=O)O [KLG, Lysyl-Leucyl-Glycine] (H-Lys-Leu-Gly-OH)",–,–,No growth,No growth,0.12 nmoles/min/mg of dry weight,decreased competition,"uptake rate with competitor as percent of the no-competitor rate [5, 7]: approximately 50%"
"CCSCC[C@H](NC(=O)[C@H](CC(C)C)NC(=O)[C@H](CC(C)C)NC(=O)[C@@H](N)CCCCN)C(=O)O [KLLEth, Lysyl-Leucyl-Leucyl-Ethionine] (H-KLL[hCys](Et)-OH)",not for PB1X-9B(pRS202),zone of complete growth inhibition,–,–,–,–,zone of growth inhibition [1]: not PB1X-9B(pRS202)
"CC(C)C[C@H](NC(=O)[C@H](CC(C)C)NC(=O)[C@@H](N)CCCCN)C(=O)NCC(=O)O [KLLG, Lysyl-Leucyl-Leucyl-Glycine] (H-KLLG-OH)",–,–,able to utilize,not able to utilize,zero,competition was seen,utilization of peptide as a source of leucine (growth) ([3]; medium with ammonium sulfate as nitrogen source): able to utilize
"CC(C)C[C@H](N)C(=O)O [L, leucine]",–,–,–,–,0.25 nm/min/mg of dry weight,do not compete,–
"CCSCC[C@H](NC(=O)[C@@H](N)CC(C)C)C(=O)O [LEth, Leucyl-Ethionine] (H-Leu-[hCys](Et)-OH)",–,–,–,–,–,–,zone of growth inhibition [2]: no zone of growth inhibition
"KLLAEth: ethionine-containing toxic pentapeptide, SEQ ID NO:15 (KLLA[Eth])",not for PB1X-9B(pRS202),zone of complete growth inhibition,–,–,–,–,zone of growth inhibition [1]: not PB1X-9B(pRS202)
"KLLLG [KLLLG, Lysyl-Leucyl-Leucyl-Leucyl-Glycine]",–,–,No growth,No growth,zero,competition was seen,–
Lysysl-Leucyl-Alanyl-Ethionine (KLA[Ethionine]) [KLAEth],not for PB1X-9B(pRS202),zone of complete growth inhibition,–,–,–,–,zone of growth inhibition [1]: not PB1X-9B(pRS202)
Lysysl-Leucyl-Ethionine [KLEth],Neither strain exhibited sensitivity,Neither strain exhibited sensitivity,–,–,–,–,zone of growth inhibition [2]: no zone of growth inhibition
KLG [Lysyl-Leucyl-Glycine],–,–,–,–,–,–,uptake rate of KLG-[3H]L in the presence of a 10-fold molar excess of the competitor [6]: 0.12 nmoles/min/mg of dry weight
KL [Lysyl-Leucine],–,–,–,–,–,–,uptake rate of KLG-[3H]L in the presence of a 10-fold molar excess of the competitor [6]: 0.26 nm/min/mg of dry weight
